According to patent EP0745595A1, “3-(3-Aryloxyphenyl)-1-(substituted methyl)-s-triazine-2,4,6-oxo or thiotrione herbicidal agents” (American Cyanamid Company, priority 1995, dated 1996):

Legend:
Type in all cases: in vivo
[1] = test system: AMBROSIA ARTEMISIIFOLIA, L.; assay: Preemergence herbicidal evaluation, AMBEL (Ragweed, Common); conditions: for AMBEL herbicidal rating: rated four to five weeks after treatment
Method in brief: (§1)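 Injury scored visually (0–9; stand, vigor, malformation, size, chlorosis) versus untreated control, four to five weeks post-treatment. Application: aqueous acetone spray onto freshly planted soil cups, equivalent to about 0.125 to 0.50 kg/ha, plants then kept under standard greenhouse care.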

[2] = test system: SETARIA VIRIDIS, (L) BEAU; assay: Preemergence herbicidal evaluation, SETVI (Foxtail, Green); conditions: for SETVI herbicidal rating: rated four to five weeks after treatment
Method in brief: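 Seeds of green foxtail (Setaria viridis) were mixed with potting soil and sown on top of roughly one inch of soil in pint cups for a preemergence herbicide test. Treated cups were kept on greenhouse benches, watered, and cared for conventionally. Four to five weeks after treatment, plants were rated visually on a 0-9 scale against a control.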

[3] = test system: TRITICUM AESTIVUM, CV. APOLLO; assay: Preemergence herbicidal evaluation, TRZAWO (Wheat, Winter, CV. APOLLO); conditions: for TRZAWO herbicidal rating: rated four to five weeks after treatment
Method in brief: as §1

[4] = test system: ORYZA SATIVA, L. TEBONNET; assay: Preemergence herbicidal evaluation, ORYSAT (Rice, Tebonnet); conditions: for ORYSAT herbicidal rating: rated four to five weeks after treatment
Method in brief: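 Seeds of rice (Oryza sativa, Tebonnet) were mixed with potting soil and sown on about one inch of soil in pint cups, then treated preemergence. Cups sat on greenhouse benches, watered and tended by standard greenhouse practice. Four to five weeks after treatment, plants were visually scored on a 0-9 scale relative to a control.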

[5] = test system: ECHINOCHLOA CRUS-GALLI, (L) BEAU; assay: Preemergence herbicidal evaluation, ECHCG (Barnyardgrass); conditions: for ECHCG herbicidal rating: rated four to five weeks after treatment
Method in brief: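 Barnyardgrass seeds were mixed with potting soil and planted on about one inch of soil in pint cups for preemergence testing. Treated cups were kept on greenhouse benches, watered and maintained by standard greenhouse practice. After four to five weeks, each cup was visually rated on a 0-9 scale against an untreated control.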

[6] = test system: ABUTILON THEOPHRASTI, MEDIC.; assay: Preemergence herbicidal evaluation, ABUTH (Velvetleaf); conditions: for ABUTH herbicidal rating: rated four to five weeks after treatment
Method in brief: as §1

`Cn1c(=O)[nH]c(=O)n(-c2cc(Oc3c(F)cc(C(F)(F)F)cc3Cl)ccc2F)c1=O` [C, reference compound] showed an AMBEL ([1]; Rate 0.031 kg/ha) of 0.0, an AMBEL ([1]; Rate 0.063 kg/ha) of 0.0 and an AMBEL ([1]; Rate 0.125 kg/ha) of 0.0. The AMBEL ([1]; Rate 0.250 kg/ha) was 0.0.
Compound “Methyl 3-{2-[(2-chloro-α,α,α,-trifluoro-p-tolyl)oxy]phenyl}tetrahydro-5-methyl-2,4,6-trioxo-s-triazine-1(2H)-acetate [Compound 28]” has an SETVI ([2]; Rate 0.125 kg/ha) of 0.0, an SETVI herbicidal rating ([2]; Rate 0.125 kg/ha) of 0.0 and an SETVI ([2]; Rate 0.250 kg/ha) of 2.0. The SETVI herbicidal rating ([2]; Rate 0.250 kg/ha) was 2.0, the SETVI ([2]; Rate 0.500 kg/ha) was 3.0 and the SETVI herbicidal rating ([2]; Rate 0.500 kg/ha) was 3.0. It also gave an SETVI ([2]; Rate 1.000 kg/ha) of 6.0, an AMBEL ([1]; Rate 0.125 kg/ha) of 5.0 and an AMBEL herbicidal rating ([1]; Rate 0.125 kg/ha) of 5.0. For the same compound, the AMBEL ([1]; Rate 0.250 kg/ha) was 5.0, the AMBEL herbicidal rating ([1]; Rate 0.250 kg/ha) was 5.0 and the AMBEL ([1]; Rate 0.500 kg/ha) was 7.0. For the same compound, the AMBEL herbicidal rating ([1]; Rate 0.500 kg/ha) was 7.0, the AMBEL ([1]; Rate 1.000 kg/ha) was 5.0 and the TRZAWO ([3]; Rate 0.125 kg/ha) was 0.0. It also gave a TRZAWO herbicidal rating ([3]; Rate 0.125 kg/ha) of 0.0, a TRZAWO ([3]; Rate 0.250 kg/ha) of 0.0 and a TRZAWO herbicidal rating ([3]; Rate 0.250 kg/ha) of 0.0. For the same compound, the TRZAWO ([3]; Rate 0.500 kg/ha) was 1.0, the TRZAWO herbicidal rating ([3]; Rate 0.500 kg/ha) was 1.0 and the TRZAWO ([3]; Rate 1.000 kg/ha) was 1.0. The ORYSAT ([4]; Rate 0.125 kg/ha) was 1.0, the ORYSAT herbicidal rating ([4]; Rate 0.125 kg/ha) was 1.0 and the ORYSAT ([4]; Rate 0.250 kg/ha) was 2.0. The ORYSAT herbicidal rating ([4]; Rate 0.250 kg/ha) was 2.0, the ORYSAT ([4]; Rate 0.500 kg/ha) was 4.0 and the ORYSAT herbicidal rating ([4]; Rate 0.500 kg/ha) was 4.0. The ORYSAT ([4]; Rate 1.000 kg/ha) was 4.0, the ECHCG ([5]; Rate 0.125 kg/ha) was 0.0 and the ECHCG herbicidal rating ([5]; Rate 0.125 kg/ha) was 0.0. The ECHCG ([5]; Rate 0.250 kg/ha) was 2.0, the ECHCG herbicidal rating ([5]; Rate 0.250 kg/ha) was 2.0 and the ECHCG ([5]; Rate 0.500 kg/ha) was 3.0. The ECHCG herbicidal rating ([5]; Rate 0.500 kg/ha) was 3.0, the ECHCG ([5]; Rate 1.000 kg/ha) was 6.0 and the ABUTH ([6]; Rate 0.125 kg/ha) was 0.0. It also gave an ABUTH herbicidal rating ([6]; Rate 0.125 kg/ha) of 0.0, an ABUTH ([6]; Rate 0.250 kg/ha) of 3.0 and an ABUTH herbicidal rating ([6]; Rate 0.250 kg/ha) of 3.0. For the same compound, the ABUTH ([6]; Rate 0.500 kg/ha) was 4.0, the ABUTH herbicidal rating ([6]; Rate 0.500 kg/ha) was 4.0 and the ABUTH ([6]; Rate 1.000 kg/ha) was 7.0.
Compound `COC(=O)Cn1c(=O)n(C)c(=O)n(-c2cc(Oc3ccccn3)ccc2[N+](=O)[O-])c1=O` [Compound 38, Methyl tetrahydro-3-methyl-5-[2-nitro-5-(2-pyridyloxy)phenyl]-2,4,6-trioxo-s-triazine-1(2H)-acetate] has an SETVI herbicidal rating ([2]; Rate 0.500 kg/ha) of 0.0, an AMBEL herbicidal rating ([1]; Rate 0.500 kg/ha) of 0.0 and a TRZAWO herbicidal rating ([3]; Rate 0.500 kg/ha) of 1.0. The ORYSAT herbicidal rating ([4]; Rate 0.500 kg/ha) was 3.0, the ECHCG herbicidal rating ([5]; Rate 0.500 kg/ha) was 0.0 and the ABUTH herbicidal rating ([6]; Rate 0.500 kg/ha) was 0.0.
In the case of `COC(=O)Cn1c(=O)n(C)c(=O)n(-c2cc(Oc3cc(Cl)cc(Cl)c3)ccc2[N+](=O)[O-])c1=O` [Compound 35, Methyl 3-[5-(3,5-dichlorophenoxy)-2-nitrophenyl]tetrahydro-5-methyl-2,4,6-trioxo-s-triazine-1(2H)-acetate], the SETVI herbicidal rating ([2]; Rate 0.500 kg/ha) is reported as 0.0, the AMBEL herbicidal rating ([1]; Rate 0.500 kg/ha) is reported as 0.0 and the TRZAWO herbicidal rating ([3]; Rate 0.500 kg/ha) is reported as 0.0. It also gave an ORYSAT herbicidal rating ([4]; Rate 0.500 kg/ha) of 0.0, an ECHCG herbicidal rating ([5]; Rate 0.500 kg/ha) of 0.0 and an ABUTH herbicidal rating ([6]; Rate 0.500 kg/ha) of 0.0.
For `COC(=O)Cn1c(=O)n(C)c(=O)n(-c2cc(Oc3ccc(SC)cc3Cl)ccc2[N+](=O)[O-])c1=O` [Compound 34, Methyl 3-{5-[2-chloro-4-(methylthio)-phenoxy]-2-nitrophenyl}tetrahydro-5-methyl-2,4,6-trioxo-s-triazine-1(2H)-acetate], the SETVI herbicidal rating ([2]; Rate 0.125 kg/ha) was 0.0, the SETVI herbicidal rating ([2]; Rate 0.250 kg/ha) was 0.0 and the SETVI herbicidal rating ([2]; Rate 0.500 kg/ha) was 0.0. For the same compound, the AMBEL herbicidal rating ([1]; Rate 0.125 kg/ha) was 0.0, the AMBEL herbicidal rating ([1]; Rate 0.250 kg/ha) was 0.0 and the AMBEL herbicidal rating ([1]; Rate 0.500 kg/ha) was 0.0. The TRZAWO herbicidal rating ([3]; Rate 0.125 kg/ha) was 0.0, the TRZAWO herbicidal rating ([3]; Rate 0.250 kg/ha) was 0.0 and the TRZAWO herbicidal rating ([3]; Rate 0.500 kg/ha) was 0.0. It also gave an ORYSAT herbicidal rating ([4]; Rate 0.125 kg/ha) of 0.0, an ORYSAT herbicidal rating ([4]; Rate 0.250 kg/ha) of 0.0 and an ORYSAT herbicidal rating ([4]; Rate 0.500 kg/ha) of 0.0. For the same compound, the ECHCG herbicidal rating ([5]; Rate 0.125 kg/ha) was 0.0, the ECHCG herbicidal rating ([5]; Rate 0.250 kg/ha) was 0.0 and the ECHCG herbicidal rating ([5]; Rate 0.500 kg/ha) was 0.0. It also gave an ABUTH herbicidal rating ([6]; Rate 0.125 kg/ha) of 0.0, an ABUTH herbicidal rating ([6]; Rate 0.250 kg/ha) of 0.0 and an ABUTH herbicidal rating ([6]; Rate 0.500 kg/ha) of 0.0.
